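Method: 48-hour compound exposure of cells in 96-well plates, five concentrations, linear interpolation of endpoints. GI50: concentration for 50% inhibition of growth. At the TGI there is no net growth.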
Key:
Test in all cases: NCI-60 cell line screen, 48 h
786-0 renal = test system: 786-0 renal
A498 renal = test system: A498 renal
A549 NSCLC = test system: A549 NSCLC
ACHN renal = test system: ACHN renal
BT-549 breast = test system: BT-549 breast
CAKI-1 renal = test system: CAKI-1 renal
CCRF-CEM leukemia = test system: CCRF-CEM leukemia
COLO 205 colon = test system: COLO 205 colon
DU-145 prostate = test system: DU-145 prostate
EKVX NSCLC = test system: EKVX NSCLC
HCC-2998 colon = test system: HCC-2998 colon
HCT-116 colon = test system: HCT-116 colon
HCT-15 colon = test system: HCT-15 colon
HL-60(TB) leukemia = test system: HL-60(TB) leukemia
HOP-62 NSCLC = test system: HOP-62 NSCLC
HOP-92 NSCLC = test system: HOP-92 NSCLC
HS 578T breast = test system: HS 578T breast
HT29 colon = test system: HT29 colon
IGROV1 ovarian = test system: IGROV1 ovarian
K-562 leukemia = test system: K-562 leukemia
KM12 colon = test system: KM12 colon
LOX IMVI melanoma = test system: LOX IMVI melanoma
M14 melanoma = test system: M14 melanoma
MALME-3M melanoma = test system: MALME-3M melanoma
MCF7 breast = test system: MCF7 breast
MDA-MB-231 breast = test system: MDA-MB-231 breast
MDA-MB-435 = test system: MDA-MB-435
MOLT-4 leukemia = test system: MOLT-4 leukemia
NCI-H226 lung = test system: NCI-H226 lung

C=C(C)C(=O)Nc1ccc(NC(C)C)cc1
GI50 (786-0 renal): > 100 µM | TGI (786-0 renal): > 100 µM | GI50 (A498 renal): > 100 µM | TGI (A498 renal): > 100 µM | GI50 (A549 NSCLC): > 100 µM | TGI (A549 NSCLC): > 100 µM | GI50 (ACHN renal): > 100 µM | TGI (ACHN renal): > 100 µM | GI50 (BT-549 breast): > 100 µM | TGI (BT-549 breast): > 100 µM | GI50 (CAKI-1 renal): > 100 µM | TGI (CAKI-1 renal): > 100 µM | GI50 (CCRF-CEM leukemia): > 100 µM | TGI (CCRF-CEM leukemia): > 100 µM | GI50 (COLO 205 colon): > 100 µM | TGI (COLO 205 colon): > 100 µM | GI50 (DU-145 prostate): > 100 µM | TGI (DU-145 prostate): > 100 µM | GI50 (EKVX NSCLC): > 100 µM | TGI (EKVX NSCLC): > 100 µM | GI50 (HCC-2998 colon): > 100 µM | TGI (HCC-2998 colon): > 100 µM | GI50 (HCT-116 colon): > 100 µM | TGI (HCT-116 colon): > 100 µM | GI50 (HCT-15 colon): > 100 µM | TGI (HCT-15 colon): > 100 µM | GI50 (HL-60(TB) leukemia): > 100 µM | TGI (HL-60(TB) leukemia): > 100 µM | GI50 (HOP-62 NSCLC): > 100 µM | TGI (HOP-62 NSCLC): > 100 µM | GI50 (HOP-92 NSCLC): > 100 µM | TGI (HOP-92 NSCLC): > 100 µM | GI50 (HS 578T breast): > 100 µM | TGI (HS 578T breast): > 100 µM | GI50 (HT29 colon): > 100 µM | TGI (HT29 colon): > 100 µM | GI50 (IGROV1 ovarian): > 100 µM | TGI (IGROV1 ovarian): > 100 µM | GI50 (K-562 leukemia): > 100 µM | TGI (K-562 leukemia): > 100 µM | GI50 (KM12 colon): > 100 µM | TGI (KM12 colon): > 100 µM | GI50 (LOX IMVI melanoma): > 100 µM | TGI (LOX IMVI melanoma): > 100 µM | GI50 (M14 melanoma): > 100 µM | TGI (M14 melanoma): > 100 µM | GI50 (MALME-3M melanoma): > 100 µM | TGI (MALME-3M melanoma): > 100 µM | GI50 (MCF7 breast): > 100 µM | TGI (MCF7 breast): > 100 µM | GI50 (MDA-MB-231 breast): > 100 µM | TGI (MDA-MB-231 breast): > 100 µM | GI50 (MDA-MB-435): > 100 µM | TGI (MDA-MB-435): > 100 µM | GI50 (MOLT-4 leukemia): > 100 µM | TGI (MOLT-4 leukemia): > 100 µM | GI50 (NCI-H226 lung): > 100 µM | TGI (NCI-H226 lung): > 100 µM

Reference: PubChem BioAssay (NCI)
